The target of series [1] is Erk2 (Homo sapiens, UniProt P28482). Put plainly: Erk2 alpha kinase assay (cell-free, ALPHA technology). Particulars: 10 μM ATP. It counts as biochemical. On the procedure:
The inhibitory effect of the compounds according to the invention was tested on various serine/threonine, tyrosine and lipid kinases in enzymatic assays. Recombinant human kinases such as, for example, Erk2, were used in this case, partly as full-length kinases, partly as shortened fragments, but at least consisting of the functional kinase domains. The commercial kinase proteins (Proqinase, Upstate) were used as recombinant fusion proteins with GST (glutathion-S-transferase) or His-Tag. Depending on the type of substrate, the various kinase reactions were quantified by means of suitable ALPHA™ beads (Perkin-Elmer). The substance testing is described in detail hereinafter for the Erk assay. […] a) MAPK-ALPHAs (e.g. […] The fluorescence was detected the following morning in a Envision plate reader (Perkin-Elmer). The %-inhibition values per substance concentration were calculated by means of the following formula from the raw data determined in the Envision plate reader[…]: Eight determinations were made for each control and two for the substance samples. […] The IC50 values were determined using GraphPadPrism.

Where a name gives a salt, the structure may show the parent alone.

Chain of Erk2 (P28482 2-360 limits assumed): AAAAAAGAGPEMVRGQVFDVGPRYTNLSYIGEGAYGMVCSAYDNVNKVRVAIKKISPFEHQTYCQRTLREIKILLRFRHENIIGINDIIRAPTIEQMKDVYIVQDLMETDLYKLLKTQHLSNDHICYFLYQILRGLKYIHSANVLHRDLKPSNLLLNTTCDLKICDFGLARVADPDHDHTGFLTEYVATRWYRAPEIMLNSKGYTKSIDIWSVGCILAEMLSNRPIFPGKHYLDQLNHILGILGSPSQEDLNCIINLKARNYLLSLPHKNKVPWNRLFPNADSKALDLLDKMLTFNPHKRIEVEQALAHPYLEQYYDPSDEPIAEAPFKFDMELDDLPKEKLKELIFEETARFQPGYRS

For orientation: IC50 means the concentration needed to halve the response being measured. A low value points to inhibition by little substance. `O=C(NCCCCc1ccccc1)Nc1ccc2ncc(-c3cnn(CCO)c3)nc2n1` [Compound 189, 1-{3-[1-(2-Hydroxy-ethyl)-1H-pyrazol-4-yl]-pyrido[2,3-b]pyrazin-6-yl}-3-(4-phenyl-butyl)-urea] came in with an IC50 in series [1] of 4 nM.

One may read the melting point as the temperature of the solid-liquid transition. Take `Cc1n[nH]c(C)c1-c1cnc2ccc(NC(=O)N[C@H](C)CCCc3ccccc3)nc2n1` [Compound 177, 1-[3-(3,5-Dimethyl-1H-pyrazol-4-yl)-pyrido[2,3-b]pyrazin-6-yl]-3-((R)-1-methyl-4-phenyl-butyl)-urea]: the melting point lay within 266 to 269 °C. In series [1], this compound gave an IC50 of 6 nM.

For the compound `COc1ccccc1-c1cnc2ccc(NC(=O)N[C@H](C)CCCc3ccccc3)nc2n1` [Compound 179, 1-[3-(2-Methoxy-phenyl)-pyrido[2,3-b]pyrazin-6-yl]-3-((R)-1-methyl-4-phenyl-butyl)-urea], the melting point was 137 to 138 °C. The IC50 in series [1] stood at 6 nM.

For the compound `O=C(NCCCCc1ccccc1)Nc1ccc2ncc(N3CCOCC3)nc2n1` [Compound 176, 1-(3-Morpholin-4-yl-pyrido[2,3-b]pyrazin-6-yl)-3-(4-phenyl-butyl)-urea], the melting point lay in the range of 200 to 202 °C. Moreover, in series [1], the half-inhibitory concentration (IC50) was found to be 6 nM.

In turn, `O=C(NCCCCc1ccccc1)Nc1ccc2ncc(-c3cnn(CCCO)c3)nc2n1` [Compound 162, 1-{3-[1-(3-Hydroxy-propyl)-1H-pyrazol-4-yl]-pyrido[2,3-b]pyrazin-6-yl}-3-(4-phenyl-butyl)-urea] gave an IC50 in series [1] of 2 nM.

`COc1ccc(-c2cnc3ccc(NC(=O)NCCCCc4ccccc4)nc3n2)cc1OC` [Compound 178, 1-[3-(3,4-Dimethoxy-phenyl)-pyrido[2,3-b]pyrazin-6-yl]-3-(4-phenyl-butyl)-urea] displayed a melting point of 210 to 211 °C. Moreover, in series [1], the IC50 came out at 6 nM.

Consider `C[C@H](CCCc1ccccc1)NC(=O)Nc1ccc2ncc(-c3cnn(C)c3)nc2n1` [Compound 180, 1-((R)-1-Methyl-4-phenyl-butyl)-3-[3-(1-methyl-1H-pyrazol-4-yl)-pyrido[2,3-b]pyrazin-6-yl]urea], for which 6 nM corresponded to half-maximal inhibition in series [1] (IC50).

Compound `C[C@H](CCCc1ccccc1)NC(=O)Nc1ccc2ncc(-c3ccc(CO)cc3)nc2n1` [Compound 167, 1-[3-(4-Hydroxymethyl-phenyl)-pyrido[2,3-b]pyrazin-6-yl]-3-((R)-1-methyl-4-phenyl-butyl)-urea] yielded a melting point of 187 to 190 °C. Further, in series [1], the IC50 is 3 nM.

`N[C@@H](Cc1ccc(-c2cnc3ccc(NC(=O)NCCCCc4ccccc4)nc3n2)cc1)C(=O)O` [Compound 197, (S)-2-Amino-3-(4-{6-[3-(4-phenyl-butyl)-ureido]-pyrido[2,3-b]pyrazin-3-yl}-phenyl)-propionic acid] had a melting point of 230 to 232 °C. This compound showed an IC50 in series [1] of 5 nM.

As for `COc1cc(CO)ccc1-c1cnc2ccc(NC(=O)N[C@H](C)CCCc3ccccc3)nc2n1` [Compound 156, 1-[3-(4-Hydroxymethyl-2-methoxy-phenyl)-pyrido[2,3-b]pyrazin-6-yl]-3-((R)-1-methyl-4-phenyl-butyl)-urea], the melting point lay in the range of 168 to 170 °C. This compound returned a 50% inhibitory concentration (IC50) in series [1] of 1 nM.

The compound `O=C(NCCCCc1ccccc1)Nc1ccc2ncc(N3CCCC3)nc2n1` [Compound 172, 1-(4-Phenyl-butyl)-3-(3-pyrrolidin-1-yl-pyrido[2,3-b]pyrazin-6-yl)-urea] registered a melting point of 204 to 206 °C. In addition, in series [1], half-maximal inhibition (IC50) was put at 5 nM.

Regarding `O=C(NCCCCc1ccccc1)Nc1ccc2ncc(-c3ccc(OCCN4CCOCC4)cc3)nc2n1` [Compound 202, 1-{3-[4-(2-Morpholin-4-yl-ethoxy)-phenyl]-pyrido[2,3-b]pyrazin-6-yl}-3-(4-phenyl-butyl)-urea], half-maximal inhibition in series [1] (IC50) required 41 nM. This counts as double-digit nanomolar.

In the case of `COCc1cccc(-c2cnc3ccc(NC(=O)N[C@H](C)CCCc4ccccc4)nc3n2)c1` [Compound 203, 1-[3-(3-Methoxymethyl-phenyl)-pyrido[2,3-b]pyrazin-6-yl]-3-((R)-1-methyl-4-phenyl-butyl)-urea], in series [1], the midpoint of inhibition, the IC50, lay at 24 nM.

For `COc1cc(-c2cnc3ccc(NC(=O)NCCCCc4ccccc4)nc3n2)ccc1C(=O)O` [Compound 194, 2-Methoxy-4-{6-[3-(4-phenyl-butyl)-ureido]-pyrido[2,3-b]pyrazin-3-yl}-benzoic acid], in series [1], half-maximal inhibition (IC50) required 1 nM.

Take `CCn1cc(-c2cnc3ccc(NC(=O)NCCCCc4ccccc4)nc3n2)cn1` [Compound 108, 1-[3-(1-Ethyl-1H-pyrazol-4-yl)-pyrido[2,3-b]pyrazin-6-yl]-3-(4-phenyl-butyl)-urea]: the melting point was in the range of 207 to 208 °C. In series [1], this compound had an IC50 of 4 nM.

Take `O=C(NCCCCc1ccccc1)Nc1ccc2ncc(-c3cccc(CO)c3)nc2n1` [Compound 175, 1-[3-(3-Hydroxymethyl-phenyl)-pyrido[2,3-b]pyrazin-6-yl]-3-(4-phenyl-butyl)-urea]: half-maximal inhibition in series [1] (IC50) required 6 nM.

`O=C(NCCCCc1ccccc1)Nc1ccc2ncc(-c3cnn(CCN4CCOCC4)c3)nc2n1` [Compound 127, 1-{3-[1-(2-Morpholin-4-yl-ethyl)-1H-pyrazol-4-yl]-pyrido[2,3-b]pyrazin-6-yl}-3-(4-phenyl-butyl)-urea]: in series [1], the IC50 came out at 5 nM.

The compound `C[C@H](CCCc1ccccc1)NC(=O)Nc1ccc2ncc(-c3ccc(C[C@H](N)C(=O)O)cc3)nc2n1` [Compound 195, (S)-2-Amino-3-(4-{6-[3-((R)-1-methyl-4-phenyl-butyl)-ureido]-pyrido[2,3-b]pyrazin-3-yl}-phenyl)-propionic acid; hydrochloride] registered a 50% inhibitory concentration (IC50) in series [1] of 1 nM.

In the case of `O=C(NCCCCc1ccccc1)Nc1ccc2ncc(-c3ccc(O)c(F)c3)nc2n1` [Compound 174, 1-[3-(3-Fluoro-4-hydroxy-phenyl)-pyrido[2,3-b]-pyrazin-6-yl]-3-(4-phenyl-butyl)-urea], inhibition in series [1] was half-maximal at 6 nM (IC50).

Turning to `O=C(NCCCCc1ccccc1)Nc1ccc2ncc(-c3ccn[nH]3)nc2n1` [Compound 105, 1-(4-Phenyl-butyl)-3-[3-(2H-pyrazol-3-yl)-pyrido[2,3-b]pyrazin-6-yl]-urea], the melting point is 280 °C (dec.).

With `Cc1n[nH]c(C)c1-c1cnc2ccc(NC(=O)NCCCCc3ccccc3)nc2n1` [Compound 91, 1-[3-(3,5-Dimethyl-1H-pyrazol-4-yl)-pyrido[2,3-b]pyrazin-6-yl]-3-(4-phenyl-butyl)-urea], the melting point is 299 to 300 °C.

For `CSc1ccc(-c2cnc3ccc(NC(=O)NCCCCc4ccccc4)nc3n2)cc1` [Compound 137, 1-[3-(4-Methylsulfanyl-phenyl)-pyrido[2,3-b]pyrazin-6-yl]-3-(4-phenyl-butyl)-urea], the melting point was 227 to 230 °C.

`C[C@H](CCCc1ccccc1)NC(=O)Nc1ccc2ncc(-c3ccc(O)c(F)c3)nc2n1` [Compound 185, 1-[3-(3-Fluoro-4-hydroxy-phenyl)-pyrido[2,3-b]pyrazin-6-yl]-3-((R)-1-methyl-4-phenyl-butyl)-urea] returned a melting point of 220 to 222 °C.

In the case of `CC(C)(C)C(=O)Oc1ccc(-c2cnc3ccc(NC(=O)NCCCCc4ccccc4)nc3n2)cc1` [Compound 135, 2,2-Dimethyl-propionic acid 4-{6-[3-(4-phenyl-butyl)-ureido]-pyrido[2,3-b]pyrazin-3-yl}-phenyl ester], the melting point amounted to 225 °C.

Take `CCCn1cc(-c2cnc3ccc(NC(=O)NCCCC(C)(C)c4ccccc4)nc3n2)cn1` [Compound 100, 1-(4-Methyl-4-phenyl-pentyl)-3-[3-(1-propyl-1H-pyrazol-4-yl)-pyrido[2,3-b]pyrazin-6-yl]-urea]: the melting point is 205 to 207 °C.

`C[C@H](CCCc1ccccc1)NC(=O)Nc1ccc2ncc(-c3cccc(CO)c3)nc2n1` [Compound 181, 1-[3-(3-Hydroxymethyl-phenyl)-pyrido[2,3-b]pyrazin-6-yl]-3-((R)-1-methyl-4-phenyl-butyl)-urea]: inhibition in series [1] was half-maximal at 6 nM (IC50).

`O=C(NCCCCc1ccccc1)Nc1ccc2ncc(-c3cc(Cl)c(O)c(Cl)c3)nc2n1` [Compound 103, 1-[3-(3,5-Dichloro-4-hydroxy-phenyl)-pyrido[2,3-b]pyrazin-6-yl]-3-(4-phenyl-butyl)-urea] gave a melting point of 271 to 273 °C.

The compound `O=C(NCCCCc1ccccc1)Nc1ccc2ncc(-c3ccc(O)c(Br)c3)nc2n1` [Compound 109, 1-[3-(3-Bromo-4-hydroxy-phenyl)-pyrido[2,3-b]pyrazin-6-yl]-3-(4-phenyl-butyl)-urea] registered a melting point of 238 to 241 °C.

With `CCNC(=O)Oc1ccc(-c2cnc3ccc(NC(=O)NCCCCc4ccccc4)nc3n2)cc1`, the melting point amounted to 198 °C.

In the case of `CCCn1cc(-c2cnc3ccc(NC(=O)NCCCC(=O)c4ccccc4)nc3n2)cn1` [Compound 131, 1-(4-Oxo-4-phenyl-butyl)-3-[3-(1-propyl-1H-pyrazol-4-yl)-pyrido[2,3-b]pyrazin-6-yl]-urea], the melting point lay within 210 to 211 °C.

The compound `COc1cc(Nc2cnc3ccc(NC(=O)NCCCCc4ccccc4)nc3n2)cc(OC)c1OC` [Compound 139, 1-(4-Phenyl-butyl)-3-[3-(3,4,5-trimethoxy-phenylamino)-pyrido[2,3-b]pyrazin-6-yl]-urea] displayed a melting point of 223 to 225 °C.

Turning to `CCOc1ccccc1-c1cnc2ccc(NC(=O)NCCCCc3ccccc3)nc2n1` [Compound 102, 1-[3-(2-Ethoxy-phenyl)-pyrido[2,3-b]pyrazin-6-yl]-3-(4-phenyl-butyl)-urea], the melting point lay in the range of 173 to 175 °C.

These data come from US8791118B2, “Pyridopyrazines as highly selective ras-Raf-Mek-Erk signal transduction pathway inhibitors” (Aeterna Zentaris GmbH, priority 2011, dated 2014).
